According to US10670605B2, “Cysteine reactive probes and uses thereof” (The Scripps Research Institute, priority 2015, dated 2020):

Experiments:
Experiment in all cases: Competitive isoTOP-ABPP, cell lysates;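 for isoTOP-ABPP reactivity profile ratio, O00170 C122: Heavy/light ratio DMSO over fragment-treated so higher means more cysteine engagement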;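 for isoTOP-ABPP reactivity profile ratio, Q99873 C109: Heavy/light ratio DMSO over fragment-treated so higher means more cysteine engagement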
Assay type in all cases: binding
XPO1 C34 (O14980) = XPO1 C34 (O14980) (Homo sapiens, UniProt O14980); conditions: 500 μm
Chain of XPO1 C34 (O14980) (O14980 whole entry): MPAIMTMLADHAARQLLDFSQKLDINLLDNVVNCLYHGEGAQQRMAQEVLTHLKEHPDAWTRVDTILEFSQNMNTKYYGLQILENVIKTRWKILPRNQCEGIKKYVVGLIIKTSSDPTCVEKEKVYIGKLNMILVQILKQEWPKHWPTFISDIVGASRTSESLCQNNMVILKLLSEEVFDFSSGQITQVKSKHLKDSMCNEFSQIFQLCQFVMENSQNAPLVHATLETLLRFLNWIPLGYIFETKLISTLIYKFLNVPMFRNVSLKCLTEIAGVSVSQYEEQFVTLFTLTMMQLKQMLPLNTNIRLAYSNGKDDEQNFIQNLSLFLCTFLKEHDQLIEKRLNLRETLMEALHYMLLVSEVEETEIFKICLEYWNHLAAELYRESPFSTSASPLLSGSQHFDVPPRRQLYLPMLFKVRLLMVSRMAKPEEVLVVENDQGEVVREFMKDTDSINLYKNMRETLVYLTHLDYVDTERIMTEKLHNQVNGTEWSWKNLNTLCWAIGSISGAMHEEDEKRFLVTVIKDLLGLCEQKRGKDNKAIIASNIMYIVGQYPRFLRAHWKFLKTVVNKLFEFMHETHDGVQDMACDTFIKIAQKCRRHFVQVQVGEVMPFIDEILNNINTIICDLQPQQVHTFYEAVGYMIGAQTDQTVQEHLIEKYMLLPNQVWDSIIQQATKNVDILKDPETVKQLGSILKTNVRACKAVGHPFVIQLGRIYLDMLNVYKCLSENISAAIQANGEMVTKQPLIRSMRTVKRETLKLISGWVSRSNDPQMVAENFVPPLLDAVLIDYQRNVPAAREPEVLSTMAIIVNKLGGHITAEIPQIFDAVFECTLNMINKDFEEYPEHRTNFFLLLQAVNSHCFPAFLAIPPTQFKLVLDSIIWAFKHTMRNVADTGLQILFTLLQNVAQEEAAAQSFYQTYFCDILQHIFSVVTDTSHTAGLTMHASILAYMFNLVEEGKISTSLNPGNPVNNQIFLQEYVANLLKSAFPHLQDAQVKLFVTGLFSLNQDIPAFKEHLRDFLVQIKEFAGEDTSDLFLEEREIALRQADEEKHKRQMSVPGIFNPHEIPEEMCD

DCUN1D1 C115 (Q96GG9) = DCUN1D1 C115 (Q96GG9) (Homo sapiens, UniProt Q96GG9); conditions: 500 μm, in-vitro_ramos
Chain of DCUN1D1 C115 (Q96GG9) (Q96GG9 whole entry): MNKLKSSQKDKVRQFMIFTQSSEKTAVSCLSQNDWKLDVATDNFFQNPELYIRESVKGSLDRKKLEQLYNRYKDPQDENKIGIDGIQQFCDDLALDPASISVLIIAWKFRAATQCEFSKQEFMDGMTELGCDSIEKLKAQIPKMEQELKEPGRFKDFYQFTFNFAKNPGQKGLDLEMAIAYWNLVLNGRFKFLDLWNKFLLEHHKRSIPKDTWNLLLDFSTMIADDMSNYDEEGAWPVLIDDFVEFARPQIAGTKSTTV

ADA C75 (P00813) = target: T1, ADA C75 (P00813) (Homo sapiens, UniProt P00813); conditions: 500 μm, in-vitro_ramos
T1 sequence (P00813 1-363): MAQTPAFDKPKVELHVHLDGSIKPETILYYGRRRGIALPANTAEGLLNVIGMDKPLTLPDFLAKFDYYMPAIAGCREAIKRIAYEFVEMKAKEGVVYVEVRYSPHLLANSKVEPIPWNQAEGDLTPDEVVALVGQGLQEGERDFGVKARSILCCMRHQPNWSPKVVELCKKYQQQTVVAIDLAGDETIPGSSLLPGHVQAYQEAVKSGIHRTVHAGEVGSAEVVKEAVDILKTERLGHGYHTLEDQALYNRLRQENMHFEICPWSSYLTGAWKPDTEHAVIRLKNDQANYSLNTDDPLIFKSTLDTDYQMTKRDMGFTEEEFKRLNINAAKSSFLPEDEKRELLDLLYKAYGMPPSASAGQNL

PRMT1 C109 (Q99873) = PRMT1 C109 (Q99873) (Homo sapiens, UniProt Q99873); conditions: for isoTOP-ABPP reactivity ratio, Q99873_C109 / isoTOP-ABPP reactivity profile ratio, Q99873_C109: 500 μm;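 for isoTOP-ABPP reactivity profile ratio, Q99873 C109: Heavy/light ratio DMSO over fragment-treated so higher means more cysteine engagement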
Chain of PRMT1 C109 (Q99873) (Q99873 whole entry, the tested form may be a part): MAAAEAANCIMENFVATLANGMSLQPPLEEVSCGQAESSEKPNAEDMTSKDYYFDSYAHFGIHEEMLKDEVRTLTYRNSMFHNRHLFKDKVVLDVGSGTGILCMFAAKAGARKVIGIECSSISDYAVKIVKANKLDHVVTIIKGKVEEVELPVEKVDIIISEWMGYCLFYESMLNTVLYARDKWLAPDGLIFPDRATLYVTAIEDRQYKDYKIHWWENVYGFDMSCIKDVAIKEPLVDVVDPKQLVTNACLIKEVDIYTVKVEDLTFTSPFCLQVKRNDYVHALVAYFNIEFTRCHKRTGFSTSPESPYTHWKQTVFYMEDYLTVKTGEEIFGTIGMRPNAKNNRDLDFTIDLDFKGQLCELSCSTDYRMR

PDE12 C108 (Q6L8Q7) = target: T2, PDE12 C108 (Q6L8Q7) (Homo sapiens, UniProt Q6L8Q7); conditions: 500 μm, in-vitro_ramos_231
T2 sequence (Q6L8Q7 43-609): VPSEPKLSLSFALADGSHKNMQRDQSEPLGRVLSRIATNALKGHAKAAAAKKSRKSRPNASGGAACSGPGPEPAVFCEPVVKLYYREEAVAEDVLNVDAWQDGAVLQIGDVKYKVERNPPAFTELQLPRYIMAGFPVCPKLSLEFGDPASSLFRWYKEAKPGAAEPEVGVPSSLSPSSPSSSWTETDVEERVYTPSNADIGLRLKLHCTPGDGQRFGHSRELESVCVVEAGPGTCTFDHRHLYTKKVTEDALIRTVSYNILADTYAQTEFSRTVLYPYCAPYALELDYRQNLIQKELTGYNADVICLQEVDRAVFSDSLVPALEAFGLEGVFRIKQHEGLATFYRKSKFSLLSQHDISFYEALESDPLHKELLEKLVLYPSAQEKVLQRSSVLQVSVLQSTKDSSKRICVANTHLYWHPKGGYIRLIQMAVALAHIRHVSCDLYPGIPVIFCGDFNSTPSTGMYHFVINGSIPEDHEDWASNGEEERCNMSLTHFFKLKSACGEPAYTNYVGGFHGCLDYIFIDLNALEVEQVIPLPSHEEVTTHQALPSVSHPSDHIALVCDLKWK

UCHL3 C95 (P15374) = target: T3, UCHL3 C95 (P15374) (Homo sapiens, UniProt P15374); conditions: 500 μm
T3 sequence (P15374 1-230): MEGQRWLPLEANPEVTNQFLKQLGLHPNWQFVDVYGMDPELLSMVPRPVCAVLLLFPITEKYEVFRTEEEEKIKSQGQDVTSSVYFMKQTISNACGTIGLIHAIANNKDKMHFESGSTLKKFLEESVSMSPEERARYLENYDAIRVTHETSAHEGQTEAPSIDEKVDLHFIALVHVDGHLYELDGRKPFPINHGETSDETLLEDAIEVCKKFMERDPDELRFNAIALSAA

AIP C122 (O00170) = target: T4, AIP C122 (O00170) (Homo sapiens, UniProt O00170); conditions: 500 μm;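 for isoTOP-ABPP reactivity profile ratio, O00170 C122: Heavy/light ratio DMSO over fragment-treated so higher means more cysteine engagement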
T4 sequence (O00170 1-330): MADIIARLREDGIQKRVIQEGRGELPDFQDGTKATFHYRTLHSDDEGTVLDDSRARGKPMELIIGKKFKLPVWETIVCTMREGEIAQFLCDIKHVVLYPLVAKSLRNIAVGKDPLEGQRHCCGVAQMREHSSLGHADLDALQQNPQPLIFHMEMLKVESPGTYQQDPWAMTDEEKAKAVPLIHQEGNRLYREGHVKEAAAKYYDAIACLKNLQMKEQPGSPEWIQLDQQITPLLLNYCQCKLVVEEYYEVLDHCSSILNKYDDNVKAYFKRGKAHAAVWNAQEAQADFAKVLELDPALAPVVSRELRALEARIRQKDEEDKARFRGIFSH

SMILES	isoTOP-ABPP reactivity ratio, O14980_C34 (XPO1 C34 (O14980); in-vitro_ramos)	isoTOP-ABPP reactivity ratio, O14980_C34 (XPO1 C34 (O14980); in-vitro_ramos_231)	isoTOP-ABPP reactivity ratio, Q96GG9_C115 (DCUN1D1 C115 (Q96GG9))	isoTOP-ABPP reactivity ratio, P00813_C75 (ADA C75 (P00813))	isoTOP-ABPP reactivity ratio, Q99873_C109 (PRMT1 C109 (Q99873); in-vitro_ramos)	isoTOP-ABPP reactivity ratio, Q99873_C109 (PRMT1 C109 (Q99873); in-vitro_ramos_231)	isoTOP-ABPP reactivity ratio, Q6L8Q7_C108 (PDE12 C108 (Q6L8Q7))	isoTOP-ABPP reactivity profile ratio, P15374_C95 (UCHL3 C95 (P15374); in-vitro_ramos)	isoTOP-ABPP reactivity profile ratio, P00813_C75 (ADA C75 (P00813))	isoTOP-ABPP reactivity profile ratio, Q99873_C109 (PRMT1 C109 (Q99873); in-vitro_ramos)	also measured
C=CC(=O)N1CCC(c2noc3ccc(F)cc23)CC1 [compound 37]	0.9		0.8	0.9	1.0						
C=CC(=O)Nc1cc(C)c(Br)cc1C [compound 40]	1.1	0.8	0.9	0.9	1.3	0.8	0.8				isoTOP-ABPP reactivity ratio, P15374_C95 (UCHL3 C95 (P15374); in-vitro_ramos): 0.9
Cc1ccc(C=C(C#N)C(=O)NCCN2CCOCC2)cc1 [compound 41]	2.0	3.1		1.1	0.9	0.9	1.3				isoTOP-ABPP reactivity ratio, O00170_C122 (AIP C122 (O00170); in-vitro_ramos): 1.0; isoTOP-ABPP reactivity ratio, O00170_C122 (AIP C122 (O00170); in-vitro_ramos_231): 1.1; isoTOP-ABPP reactivity ratio, P15374_C95 (UCHL3 C95 (P15374); in-vitro_ramos): 0.8; isoTOP-ABPP reactivity ratio, P15374_C95 (UCHL3 C95 (P15374); in-vitro_ramos_231): 1.0
N#CC(=Cc1ccc(-c2ccccc2Cl)o1)C(N)=O [compound 42]								0.9	0.8	0.9	isoTOP-ABPP reactivity profile ratio, O00170_C122 (AIP C122 (O00170); in-vitro_ramos): 0.8; isoTOP-ABPP reactivity profile ratio, O14980_C34 (XPO1 C34 (O14980); in-vitro_ramos): 0.9; isoTOP-ABPP reactivity profile ratio, Q96GG9_C115 (DCUN1D1 C115 (Q96GG9)): 0.9
COc1cc(NC(=O)CCl)cc(OC)c1 [compound 43]								20.0	1.2	1.2	isoTOP-ABPP reactivity profile ratio, O00170_C122 (AIP C122 (O00170); in-vitro_ramos): 2.1; isoTOP-ABPP reactivity profile ratio, O14980_C34 (XPO1 C34 (O14980); in-vitro_ramos_231): 1.1; isoTOP-ABPP reactivity profile ratio, Q99873_C109 (PRMT1 C109 (Q99873); in-vitro_ramos_231): 1.4

Continued, in another order:

isoTOP-ABPP reactivity ratio, O14980_C34 (XPO1 C34 (O14980); in-vitro_ramos)	isoTOP-ABPP reactivity ratio, O14980_C34 (XPO1 C34 (O14980); in-vitro_ramos_231)	isoTOP-ABPP reactivity ratio, Q96GG9_C115 (DCUN1D1 C115 (Q96GG9))	isoTOP-ABPP reactivity ratio, P00813_C75 (ADA C75 (P00813))	isoTOP-ABPP reactivity ratio, Q99873_C109 (PRMT1 C109 (Q99873); in-vitro_ramos)	isoTOP-ABPP reactivity ratio, Q99873_C109 (PRMT1 C109 (Q99873); in-vitro_ramos_231)	isoTOP-ABPP reactivity ratio, Q6L8Q7_C108 (PDE12 C108 (Q6L8Q7))	isoTOP-ABPP reactivity profile ratio, P15374_C95 (UCHL3 C95 (P15374); in-vitro_ramos)	isoTOP-ABPP reactivity profile ratio, P00813_C75 (ADA C75 (P00813))	isoTOP-ABPP reactivity profile ratio, Q99873_C109 (PRMT1 C109 (Q99873); in-vitro_ramos)	SMILES	also measured
1.3	0.8	0.9	1.1	1.0	0.8	0.8				O=C(CCl)Nc1ccccc1C1CCCCCC1 [compound 35]	
							0.9	1.0	9.5	O=C(CCl)Nc1cccc2ncccc12 [compound 51]	isoTOP-ABPP reactivity profile ratio, O00170_C122 (AIP C122 (O00170); in-vitro_ramos_231): 1.4; isoTOP-ABPP reactivity profile ratio, O14980_C34 (XPO1 C34 (O14980); in-vitro_ramos): 1.0; isoTOP-ABPP reactivity profile ratio, O14980_C34 (XPO1 C34 (O14980); in-vitro_ramos_231): 0.9; isoTOP-ABPP reactivity profile ratio, Q96GG9_C115 (DCUN1D1 C115 (Q96GG9)): 0.8; isoTOP-ABPP reactivity profile ratio, Q99873_C109 (PRMT1 C109 (Q99873); in-vitro_ramos_231): 0.9; blockade of IA-alkyne labeling of C109 of PRMT1 (PRMT1 C109 (Q99873); competitive isoTOP-ABPP): blocking IA-alkyne labeling
